Measured values published in patent publication US20070148660A1, “Treatment of maladaptive substance use with H-ras antagonists” (The Regents of the University of California, priority 2005, published 2007).
Marks after values point to notes of the source that are not given here.

Experiments:
NMDAR = experiment: NMDAR-mediated EPSCs, whole-cell voltage clamp, hippocampal CA1; assay type: cell-based, mouse; details: for slowing of the weighted decay time compared to the control: 80 mM ethanol; for % Fast / τF / τS / τW: double exponential fit; for τW: 0 min 47.4 ms
Method: Electrophysiological recordings were performed in C57BL/6J mice ranging from P21 to P26. Briefly, mice were anesthetized with halothane and decapitated as per University of California, San Francisco animal care guidelines. Horizontal sections of the hippocampus ([…]) were prepared with a vibratome (Leica, Nussloch, Germany). Slices were placed in a holding chamber and allowed to recover for at least 1 hr before being placed in the recording chamber and superfused with aCSF saturated with 95% O2/5% CO2 and containing (in mM): 119 NaCl, 1.6 KCl, 1.0 NaH2PO4, 1.3 MgCl2 (for EPSCs) or 0.01 MgCl2 (for field excitatory postsynaptic potentials (fEPSPs)), 2.5 CaCl2, 26.2 NaHCO3 and 11 glucose. Picrotoxin (100 μM) was added to block gamma-aminobutyric acid-A (GABAA) receptor-mediated inhibitory synaptic transmission, and CNQX (for EPSCs) or NBQX (for fEPSPs) (10 μM) was added to block α-amino-3-hydroxy-5-methyl-4-isoxalepropionate (AMPA)/Kainate receptors. Cells were visualized using infrared differential interference contrast video microscopy.
Whole-cell voltage clamp-recordings were made using an Axopatch ID or a MultiClamp 700A amplifier (Axon Instruments, Union City, Calif.). Electrodes (3.5-5.0 MΩ) contained (in mM): 120 Cesium methansulfonate, 20 HEPES, 0.4 EGTA, 2.8 NaCl, 5 TEA-Cl, 2.5 MgATP, and 0.25 NaGTP (pH 7.2-7.3), buffer at 270-285 mOsm. Series resistance (10-30 MΩ) and input resistance were monitored on-line with a 4 mV depolarizing step (50 ms) given just after every afferent stimulus. Recordings from the CA1 region of the hippocampus were obtained with a bipolar stimulating electrode that was placed 100-300 μm rostral to the recording electrode and was used to stimulate excitatory afferents at 0.1 Hz. Neurons were voltage-clamped at +40 mV to evoke NMDAR-mediated EPSCs. At this potential, NMDARs have a maximal open probability and the Mg^2+ block is removed. EPSCs were filtered at 2 kHz, digitized at 5-10 kHz and collected on-line using Igor Pro software (Wavemetrics, Lake Oswego, Oreg.) or pClamp 9 (Axon Instruments, Union City, Calif.). NMDAR example traces were constructed by averaging 20 EPSCs (200 sec) elicited at +40 mV during baseline, ethanol application, drug application or drug application with ethanol. To calculate the decay time (τ), Igor Pro software was used to fit exponential decay curves to averaged NMDAR-mediated EPSCs using the formula: y=A1exp(−invTau1*x)+A2exp(−invTau2X).

NR2B = details: ethanol, hippocampal slices, data not shown
Method: (§1) Transverse hippocampal slices ([…]) were prepared from 10- to 12-week-old C57BL/6J mice. Slices were allowed to recover for 90 min in artificial cerebrospinal fluid (aCSF) saturated with 95% O2/5% CO2 containing (in mM): 126 NaCl, 1.2 KCl, 1.2 NaH2PO4, 1.2 MgCl2, 2.4 CaCl2, 18 NaHCO3, and 11 glucose. Following recovery, slices were treated with aCSF (control) or ethanol at room temperature, after which the slices were rinsed in cold aCSF, and used either for cross-linking experiments, for Ras activity assay, or for immunoprecipitation. In experiments using Tat-H-Ras DN or the Tat-peptide, the slices were pretreated with either aCSF (control) or 2 μM Tat-H-Ras DN or Tat-peptide for 2 hrs at room temperature, followed by ethanol treatments.
Chymotrypsin experiments were performed as described previously (22), with minor modifications. Following recovery, slices were treated with aCSF or 0.5 mg/ml chymotrypsin at 32° C. for 5 min. […] The protein concentration was determined using the BCA assay, followed by SDS-PAGE and Western blot analysis.
Proteins were separated by SDS-PAGE and blotted onto a nitrocellulose membrane. […] Results were quantified by NIH Image 1.61.

[1] = test system: GluR1 subunit of the AMPAR; details: 100 mM ethanol, 15 min, hippocampal slices
Method: as §1
(§2) Cross-linking was performed as described previously (22), with minor modifications. Following treatment, the slices were placed in cold aCSF in the presence or absence of 2 mg/ml of the cross-linking reagent BS^3 for 45 min at 4° C. while shaking. Slices were then rinsed three times with cold aCSF containing 20 mM Tris (pH 7.6), followed by sonication in cold homogenization buffer (10% SDS, 10 mM EDTA, 100 mM Tris (pH 8.0), and protease and phosphatase inhibitor cocktails). The protein concentration was determined using the BCA assay, followed by SDS-PAGE and Western blot analysis. Data are expressed as ratio of normalized surface expressed or internalized receptors to the total receptor levels.
(§3) Proteins were separated by SDS-PAGE and blotted onto a nitrocellulose membrane. After blocking, the membranes were incubated with the specific primary antibody, followed by horseradish peroxidase-conjugated secondary antibody. Detection was obtained followed by enhanced chemiluminescent reaction (Amersham Biosciences), and processed using the STORM PhosphoImager (Amersham Biosciences). Results were quantified by NIH Image 1.61.

NR1 subunit of the NMDAR = details: 100 mM ethanol, 15 min, hippocampal slices
Method: as §1, §2, §3

NR2B subunit = details: 100 mM ethanol, 15 min, hippocampal slices
Method: as §1, §2, §3

[2] = test system: NR2A subunit of the NMDAR; experiment: BS3 cross-linking, surface vs internalized NR2A in hippocampal slices; assay type: cell-based, mouse
Method: as §1, §2, §3

[3] = 15 min exposure to ethanol (80 mM), n=6
[4] = 30 min exposure to ethanol (80 mM), n=6

CCO [ethanol]
inhibition of EPSCs at low ethanol concentration (NMDAR; 25 mM ethanol, n=18, data not shown): 24±6%
effect of ethanol on the remaining portion of the NMDAR EPSCs (NMDAR; 80 mM ethanol bath applied after NVP-AAM077 0.4 μM): did not alter
slowing of the weighted decay time compared to the control (NMDAR; after 15 min, n=6): 33±14%
slowing of the weighted decay time compared to the control (NMDAR; after 30 min, n=6): 70±29%
% Fast (NMDAR; [3]): 12.5 ± 3.1%
τF (NMDAR; [3]): 34.5 ± 2.1 ms
τS (NMDAR; [3]): 256.3 ± 51.8* ms
τW (NMDAR; [3]): 62.2 ± 10* ms
τW (NMDAR; 15 min exposure to ethanol (80 mM), n=6, listed as Ethanol): 62 ± 10 ms
% Fast (NMDAR; [4]): 112.6 ± 2.0%
τF (NMDAR; [4]): 42.4 ± 4.4* ms
τS (NMDAR; [4]): 354.0 ± 91.1 ms
τW (NMDAR; [4]): 77.8 ± 14.1* ms
τW (NMDAR; 30 min exposure to ethanol (80 mM), n=6, listed as Ethanol): 78 ± 14 ms
inhibition of NMDAR-mediated EPSCs (NMDAR; bath application of 80 mM ethanol, n=9, data not shown): 37±7%
further decrease in remaining current (NMDAR; bath application of ethanol in the presence of ifenprodil (3 μM)): 36%
total reduction of NMDAR EPSCs (NMDAR; ifenprodil (3 μM) plus ethanol, n=6): 73±7%
surface or intracellular levels of NR2B (chymotrypsin) (NR2B): no effects
surface expression of the GluR1 subunit [1]: no change
surface expression of the NR1 subunit (NR1 subunit of the NMDAR): no change
membranal localization of the NR2B subunit (NR2B subunit): did not alter
change in subcellular localization of NR2A after ethanol washout ([2]; 100 mM ethanol 15 min, washed out, 15 min recovery): not observed
intracellular level of NR2A ([2]; 100 mM ethanol, 15 min, hippocampal slices): significant increase
NR2A internalization in Fyn+/+ and Fyn-/- mice ([2]; 100 mM ethanol, 15 min, slices from Fyn+/+ and Fyn-/- mice): significantly enhanced
internalization of the NR2A subunits in Src+/+ mice ([2]; 100 mM ethanol, 15 min, slices from Src+/+ mice): significantly increased
NR2A internalization in Src+/- mice upon ethanol ([2]; 100 mM ethanol, 15 min, slices from Src+/- mice, NR2A internalized under basal conditions): no additional changes
surface expression of the NR2A subunit at lower ethanol concentrations ([2]; ethanol as low as 25 mM, 15 min, hippocampal slices): reduction
